What was measured:
[1] = target: C-X-C chemokine receptor type 4 (Homo sapiens, UniProt P61073); assay: Antagonist activity at CXCR4 (unknown origin) expressed in U2OS cells cotransfected with beta-arrestin/TEV protease fusion protein and beta-lactamase assessed as inhibition of SDF1-alpha-induced beta arrestin2 recruitment preincubated for 30 mins followed by SDF1-alpha stimulation and measured after 5 hrs by FRET based fluorescence/Tango assay
[2] = target: T1, C-X-C chemokine receptor type 2 (Homo sapiens, UniProt P25025); assay: Antagonist activity at CXCR2 (unknown origin) expressed in U2OS cells cotransfected with beta-arrestin/TEV protease fusion protein and beta-lactamase assessed as inhibition of CXCL8-induced beta arrestin2 recruitment preincubated for 30 mins followed by CXCL8 stimulation and measured after 5 hrs by FRET based fluorescence/Tango assay; type: cell-based
T1 sequence (P25025 whole entry): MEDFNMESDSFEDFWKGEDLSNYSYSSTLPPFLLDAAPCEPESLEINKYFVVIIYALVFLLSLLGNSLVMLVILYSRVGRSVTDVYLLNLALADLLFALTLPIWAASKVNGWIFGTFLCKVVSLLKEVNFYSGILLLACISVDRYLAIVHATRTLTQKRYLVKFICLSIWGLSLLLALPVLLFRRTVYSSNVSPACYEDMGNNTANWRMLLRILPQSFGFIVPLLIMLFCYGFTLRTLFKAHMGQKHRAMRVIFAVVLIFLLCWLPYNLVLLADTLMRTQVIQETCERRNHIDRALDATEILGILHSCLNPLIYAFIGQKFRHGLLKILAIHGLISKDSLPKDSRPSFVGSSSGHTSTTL

Sequence of C-X-C chemokine receptor type 4 (P61073 whole entry, the tested form may be a part): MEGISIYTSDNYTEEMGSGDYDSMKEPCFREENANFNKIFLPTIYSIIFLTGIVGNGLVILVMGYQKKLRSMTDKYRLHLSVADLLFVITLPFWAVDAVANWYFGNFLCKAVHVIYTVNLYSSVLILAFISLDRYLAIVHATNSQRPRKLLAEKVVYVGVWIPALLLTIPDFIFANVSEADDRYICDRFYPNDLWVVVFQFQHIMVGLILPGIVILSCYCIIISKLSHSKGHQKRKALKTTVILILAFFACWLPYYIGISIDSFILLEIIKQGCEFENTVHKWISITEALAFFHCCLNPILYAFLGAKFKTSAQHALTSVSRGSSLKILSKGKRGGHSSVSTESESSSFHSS

Structure (SMILES)	IC50 [1]	IC50 [2]
CC(C)(C)OC(=O)c1c(NC(=S)Nc2ccccc2)sc2c1CCCC2	> 10 µM	1.8 µM
CC(C)(C)OC(=O)c1c(NC(=S)Nc2ccc(OC(F)(F)F)cc2)sc2c1CCOC2	> 30 µM	1.6 µM
CCOC(=O)c1c(NC(=S)Nc2ccc(N(C)C)cc2)sc2c1C(C)CCC2 (centres undefined)	> 10 µM	3.9 µM
CCOC(=O)c1c(NC(=S)NC(=O)c2ccccc2)sc2c1C(C)CCC2 (centres undefined)	> 10 µM	> 10 µM
COc1cccc(NC(=S)Nc2sc3c(c2C(=O)OC(C)(C)C)C(C)CCC3)c1 (centres undefined)	> 10 µM	2.7 µM
COc1ccc(NC(=S)Nc2sc3c(c2C(=O)OC(C)(C)C)C(C)CCC3)cc1OC (centres undefined)	> 10 µM	5.7 µM
CC(C)(C)OC(=O)c1c(NC(=S)Nc2ccccc2)sc2c1CCN(Cc1ccccc1)C2	> 10 µM	> 10 µM
CN1CCc2c(sc(NC(=S)Nc3ccccc3)c2C(=O)OC(C)(C)C)C1	> 10 µM	> 10 µM
CCOC(=O)c1c(NC(=S)NCc2ccccc2)sc2c1C(C)CCC2 (centres undefined)	> 20 µM	6.7 µM
CC1CCCc2sc(NC(=S)Nc3ccccc3)c(C(=O)OC(C)(C)C)c21 (centres undefined)	11.9 µM	2.5 µM
CC(C)(C)OC(=O)c1c(NC(=S)Nc2ccccc2)sc2c1CCNC2	> 10 µM	8.7 µM
CC1CCCc2sc(NC(=S)Nc3ccc(OC(F)(F)F)cc3)c(C(=O)OC(C)(C)C)c21 (centres undefined)	> 10 µM	10.6 µM
CCOC(=O)c1c(NC(=S)Nc2ccc(OC)c(OC)c2)sc2c1C(C)CCC2 (centres undefined)	> 10 µM	7.7 µM
CCOC(=O)c1c(NC(=S)Nc2ccc(F)cc2)sc2c1C(C)CCC2 (centres undefined)	11.7 µM	2.1 µM
CCOC(=O)c1c(NC(=S)Nc2ccc(C(F)(F)F)cc2)sc2c1C(C)CCC2 (centres undefined)	14.6 µM	2 µM
CC1CCCc2sc(NC(=S)Nc3ccccc3)c(C(N)=O)c21 (centres undefined)	> 10 µM	> 30 µM
O=C(Nc1ccccc1)c1c(NC(=S)Nc2ccc(F)cc2)sc2c1CCOC2	> 10 µM	> 10 µM
CCOC(=O)c1c(NC(=S)Nc2ccc(C(C)(C)C)cc2)sc2c1C(C)CCC2 (centres undefined)	> 10 µM	7 µM
C[C@H](NC(=S)Nc1sc2c(c1C(=O)OC(C)(C)C)CCOC2)c1ccccc1	> 30 µM	2.4 µM
CC(C)(C)OC(=O)c1c(NC(=S)Nc2ccccc2)sc2c1CCCO2	> 10 µM	4.1 µM
COc1ccc(NC(=S)Nc2sc3c(c2C(=O)OC(C)(C)C)CCOC3)cc1OC	> 10 µM	3.4 µM
CCOC(=O)c1c(NC(=S)Nc2ccc(OC)cc2)sc2c1C(C)CCC2 (centres undefined)	11.5 µM	4.4 µM
